From PMC13330650 (Matrix biology : journal of the International Society for …, 2025) come the findings set out here.

Positions count from the first letter of the chain named.

Experiment [1] has as its target T1, UGDH WT (Homo sapiens, UniProt O60701).
T1 construct: six-histidine; made in house; host or cells: E. coli BL21(DE3)
T1 sequence (O60701 1-494): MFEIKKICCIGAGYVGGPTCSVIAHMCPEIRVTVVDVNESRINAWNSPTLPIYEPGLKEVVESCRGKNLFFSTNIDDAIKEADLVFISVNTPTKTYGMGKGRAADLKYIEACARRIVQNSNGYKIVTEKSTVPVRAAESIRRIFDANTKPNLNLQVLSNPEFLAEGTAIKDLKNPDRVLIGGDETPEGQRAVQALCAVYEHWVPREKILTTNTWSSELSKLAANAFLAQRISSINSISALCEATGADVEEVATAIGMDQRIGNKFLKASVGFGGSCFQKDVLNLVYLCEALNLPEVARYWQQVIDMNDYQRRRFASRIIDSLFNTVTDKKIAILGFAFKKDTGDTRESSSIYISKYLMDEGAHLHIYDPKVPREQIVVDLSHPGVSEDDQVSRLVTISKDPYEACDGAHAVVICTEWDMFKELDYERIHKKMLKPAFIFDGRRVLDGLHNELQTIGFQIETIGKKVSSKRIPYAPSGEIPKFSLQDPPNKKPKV
As to the kind of experiment: isothermal titration calorimetry, UDP-Xylose binding to UGDH WT. Particulars: ITC, single-site binding model. From the text: (§1) Finally, we tested whether the S316 point mutants impacted inhibition of UGDH by UDP-xylose (UDP-Xyl), which is an endogenous competitive inhibitor of UGDH with nM affinity that causes a conformational change in the crystal structure exposing one of the dimer interfaces. We measured the concentration dependence of UDP-Xyl inhibition in the context of the catalytic reaction at sub-saturating UDP-Glc and NAD^+ and used the resultant curves to calculate the IC50 for UGDH S316A and S316D (Table 1). […] Binding of UDP-Xyl to UGDH independently of catalysis was measured by ITC. […]
(§2) Purified S316 mutants were compared to the UGDH WT enzyme using the following approaches as previously described. Enzymatic activity was evaluated by steady state kinetics in the presence and absence of the endogenous inhibitor UDP-Xylose to compare Michaelis constants and IC50 values. Intrinsic stability was assessed by thermal denaturation and quaternary structure was determined by size exclusion chromatography. Binding of UDP-Xylose to recombinant UGDH and mutants was measured by isothermal titration calorimetry using the MicroCal PEAQ-ITC (Malvern Panalytical). […] Binding heats were corrected for the heat of dilution and analyzed using the MicroCal PEAQ-ITC Analysis Software, employing a single-site binding model to determine Kd values.
Background: Isothermal titration calorimetry measures the heat released or taken up as one component is titrated into another.

Experiment [2] addresses T2, UGDH S316 phosphorylation by RSK2, S6K1, SGK1 (Homo sapiens, UniProt O60701).
T2 construct: made in house
T2 sequence (O60701 1-494): T1 sequence (O60701 1-494)
As to the kind of experiment: in vitro kinase assay, phosphorylation of UGDH S316. The class given is biochemical. To be noted: in vitro kinase assays with RSK2, S6K1, SGK1; data not shown. The protocol:
Due to the location of UGDH S316 at the dimeric interface, we tested whether UGDH oligomeric status influenced the ability of each kinase to phosphorylate UGDH S316. In vitro kinase assays were performed to compare phosphorylation of UGDH S316 in the WT enzyme versus the UGDH T325D obligate dimer mutant. All three kinases produced a phosphorylation band in the dimeric UGDH T325D as expected.
Recombinant UGDH (100 μg) was incubated for 2 h at 30 °C with 1 μg of each kinase and either activated by addition of ATP (200 μM) or a conjugatable ATP analogue, γ-[(6-Azidohexyl)-imido]-ATP. Phosphorylated UGDH was detected by western analysis (using anti-pAkT substrate antibody) or by SDS-PAGE following reaction with tetramethylrhodamine (TAMRA) alkyne, copper, THPTA, and sodium ascorbate.

Experiment [3] has as its target T3, UGDH S316A (Homo sapiens, UniProt O60701, S316A).
T3 construct: six-histidine; made in house; host or cells: E. coli BL21(DE3)
T3 sequence (O60701 1-494 S316A): T1 sequence (O60701 1-494) with S316A
As to the kind of experiment: UDP-Xyl inhibition of the catalytic reaction, UGDH S316A. The class given is biochemical. Particulars: sub-saturating UDP-Glc and NAD+, read-out: UDP-Xylose IC50.
From the text: as §1, §2

Experiment [4] addresses T4, UGDH S316D (Homo sapiens, UniProt O60701, S316D).
T4 construct: six-histidine; made in house; host or cells: E. coli BL21(DE3)
T4 sequence (O60701 1-494 S316D): T1 sequence (O60701 1-494) with S316D
As to the kind of experiment: UDP-Xyl inhibition of the catalytic reaction, UGDH S316D. The class given is biochemical. To be noted: sub-saturating UDP-Glc and NAD+, read-out: UDP-Xylose IC50.
From the text: as §1, §2

Experiment [5] concerns the target T3, UGDH S316A. Description: isothermal titration calorimetry, UDP-Xylose binding to UGDH S316A. To be noted: ITC, single-site binding model.
From the text: as §1, §2

Experiment [6] deals with T4, UGDH S316D. Description: isothermal titration calorimetry, UDP-Xylose binding to UGDH S316D. To be noted: ITC.
From the text: as §1, §2

In experiment [7] the target is T1, UGDH WT. As to the kind of experiment: UDP-Xyl inhibition of the catalytic reaction, UGDH WT. The class given is biochemical. Particulars: sub-saturating UDP-Glc and NAD+, read-out: UDP-Xylose IC50.
From the text: as §1, §2

Usually Kd stands for a measure of binding affinity in units of concentration. A word on the IC50: it is the concentration that gives 50% inhibition.

For `O=c1ccn([C@@H]2O[C@H](COP(=O)(O)OP(=O)(O)O[C@H]3OC[C@@H](O)[C@H](O)[C@H]3O)[C@@H](O)[C@H]2O)c(=O)[nH]1` [UDP-Xylose], the Kd in experiment [1] stood at 91 ± 35 nM; in experiment [5], 71 ± 20 nM; in experiment [6] (UGDH S316D, single-site binding model), 150 ± 30 nM. In addition, the “effect of UDP-Xyl on phosphorylation of UGDH S316” value in experiment [2] is given as “did not impact phosphorylation”. For the same compound, the results for the IC50 in experiment [3], in experiment [4] and in experiment [7] were 250 ± 60 nM, 250 ± 30 nM and 220 ± 50 nM, respectively. For the same compound, the “Kd for UGDH S316D relative to Kd values for UGDH WT and S316A” value in experiment [6] (higher for S316D) is “≈ 2 fold”.
